In patent publication US8557805B2, “Fused ring compound and use thereof” (Takeda Pharmaceutical Company Limited, priority 2008, dated 2013) one finds EC50 and melting point data, which are given here for four molecules.

Each structure is given as a SMILES string.

The target of series [1] is T1, human liver GK (GST-hLGK1) (Homo sapiens, UniProt P35557).
T1 construct: with a BamHI site added to immediately before the initiation codon; made in house; host or cells: Escherichia coli BL21 (Stratagene), plasmid pGEX6P-2/hLGK1
T1 sequence (P35557 1-464 isoform P35557-3): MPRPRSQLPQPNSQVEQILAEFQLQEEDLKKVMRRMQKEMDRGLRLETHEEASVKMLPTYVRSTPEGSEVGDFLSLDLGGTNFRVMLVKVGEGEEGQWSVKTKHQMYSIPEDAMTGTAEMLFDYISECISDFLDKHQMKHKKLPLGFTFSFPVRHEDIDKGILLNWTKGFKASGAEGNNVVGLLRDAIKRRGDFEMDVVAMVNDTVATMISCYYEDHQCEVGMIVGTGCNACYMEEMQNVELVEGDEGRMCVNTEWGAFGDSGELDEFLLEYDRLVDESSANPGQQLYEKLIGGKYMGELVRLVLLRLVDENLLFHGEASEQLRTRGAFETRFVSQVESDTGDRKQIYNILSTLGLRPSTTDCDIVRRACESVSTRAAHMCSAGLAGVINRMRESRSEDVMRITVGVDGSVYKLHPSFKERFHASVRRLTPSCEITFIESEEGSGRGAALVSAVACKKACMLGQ
Nature of the series: Determination of GK activity value (Mant-ATP to Mant-ADP conversion, capillary electrophoresis). The class given is biochemical. The conditions noted are these: reaction started with 25 mM D-glucose solution, 37° C., 60 min, concentration at midpoint between maximum activity value and control group activity value. As to the method: Plasmid DNA to be used for the expression of a protein (GST-hLGK1) containing GST (Glutathione S-transferase) added to the amino terminal of human liver GK in Escherichia coli was prepared as follows.
First, PCR was performed using human liver cDNA (Marathon Ready cDNA, Clontech Laboratories, Inc.) as a template and two kinds of synthetic DNAs (5′-[…]-3′ (SEQ ID NO: 1) and 5′-[…]-3′ (SEQ ID NO: 2)), and the obtained DNA fragment was closed using a TOPO TA Cloning Kit (Invitrogen Corporation). PCR was performed using the obtained plasmid DNA as a template and a synthetic DNA (5′-[…] CAGAG-3′ (SEQ ID NO: 3)) with a BamHI site added to immediately before the initiation codon, and a synthetic DNA (5′-[…]-3′ (SEQ ID NO: 4)) with an EcoRI site added to immediately after the stop codon. The obtained DNA fragment was subcloned to pGEX6P-2 (Amersham Biosciences K.K.) cleaved with BamHI and EcoRI to give a plasmid (pGEX6P-2/hLGK1) for expression of human liver GK.
BL21 strain (Stratagene) transformed with pGEX6P-2/hLGK1 obtained in (1) was cultured with shaking at 37° C. for 14 hr in a 200 ml Erlenmeyer flask containing 50 ml of 100 μg/ml ampicillin-containing LB medium. The culture medium (25 ml) was diluted with 225 ml of 100 μg/ml ampicillin-containing LB medium, and further cultured with shaking at 37° C. for 1 hr in a 1 L Erlenmeyer flask. After culture, the Erlenmeyer flask was cooled on ice, 125 μL of 100 mM isopropyl-thio-β-D-galactopyranoside (IPTG) was added (final concentration 50 μM), and cultured at 17° C. for 20 hr. The culture medium was centrifuged, and the obtained fungus was disrupted by ultrasonication. The object protein (GST-hLGK1) was purified from the supernatant using Glutathione Sepharose 4B (Amersham Biosciences K.K.).
A solution (5 μL) of test compound in 50% dimethyl sulfoxide was added to each well of 384 well black plate (Nalge Nunc International K.K.). Then, a solution (35 μL) obtained by diluting GST-hLGK1 obtained in (2) with measurement buffer (containing 50 mM HEPES (pH 7.4), 200 mM KCl, 5 mM MgCl2, 2.5 mM DTT and 50 μM 2′-(or-3′)-O—(N-methylanthraniloyl)adenosine 5′-triphosphate (Mant-ATP) (Jena Bioscience GmbH)) to 6 μg/mL was added to each well.
Each well was stood at 37° C. for 10 min, and 25 mM D-glucose solution (10 μL) was added to start the reaction.
Each well after the reaction was stood at 37° C. for 60 min, and the reaction was quenched by adding 25 μL of a quenching solution (containing 200 mM HEPES (pH 7.4), 20 mM MgCl2, 200 mM EDTA, 0.03% Triton-X 100, 0.3% Coating 3 reagent (Caliper Life Sciences, Inc.)).
2′-(or -3′)-O—(N-methylanthraniloyl)adenosine 5′-triphosphate (Mant-ATP, substrate) and Mant-ADP (reaction resultant product) were separated from each well after the reaction by a microchip type capillary electrophoresis apparatus 250 HTS (Caliper Life Sciences, Inc.). The reaction rate [(reaction resultant product peak height)/(reaction resultant product peak height+substrate peak height)×100(%)] was calculated from the ratio of the substrate peak height and reaction resultant product peak height obtained by fluorescence detection (excitation wavelength 355 nm, measurement wavelength 460 nm) and used as the index of GK activity.
3.5 As a control group, the reaction rate was calculated in the same manner as above except that “solution in 50% dimethyl sulfoxide (without test compound)” was used instead of “solution of test compound in 50% dimethyl sulfoxide”.
A concentration dependency curve of the test compound was drawn with the percentage obtained by dividing the reaction rate of the well added with the test compound (test compound addition group) by the reaction rate of the control group was taken as the GK activity value of the test compound, and the concentration of the test compound at the midpoint between the maximum activity value of the test compound addition group and the control group activity value is shown as EC50 value.

For orientation: EC50 means the concentration that produces a half-maximal response. Low values mean an effect from little substance, high ones a need for much substance. What is called melting point is the temperature, or range, at which the solid turns liquid. In turn, `CNC(=O)CC1CN=C(c2cc3cc(Oc4ccc(S(C)(=O)=O)nc4)cc(C)c3[nH]2)S1` (centres unmarked) [Example 73, 2-[2-(7-Methyl-5-{[6-(methylsulfonyl)pyridin-3-yl]oxy}-1H-indol-2-yl)-4,5-dihydro-1,3-thiazol-5-yl]-N-methylacetamide] came in with a melting point of 183 to 184 °C. For the same molecule, a half-maximal response in series [1] (EC50) required 33 nM.
As for `Cc1cc(Oc2ccc(S(C)(=O)=O)nc2)cc2cc(C3=NCC(CC(=O)N4CCOCC4)S3)[nH]c12` (centres unmarked) [Example 80, 7-Methyl-5-{[6-(methylsulfonyl)pyridin-3-yl]oxy}-2-[5-(2-morpholin-4-yl-2-oxoethyl)-4,5-dihydro-1,3-thiazol-2-yl]-1H-indole], the melting point was 152 to 154 °C. In series [1], this molecule registered an EC50 of 54 nM.
For `Cc1cc(Oc2ccc(S(C)(=O)=O)nc2)cc2cc(C3=NCC(CC(=O)N4CC[S+]([O-])CC4)S3)[nH]c12` (centres unmarked) [Example 81, 7-Methyl-5-{[6-(methylsulfonyl)pyridin-3-yl]oxy}-2-{5-[2-(1-oxidothiomorpholin-4-yl)-2-oxoethyl]-4,5-dihydro-1,3-thiazol-2-yl}-1H-indole], in that order: 157 to 160 °C and 48 nM.
On the same counts, the results for `CCc1cc(Oc2ccc(S(C)(=O)=O)nc2)cc2cc(C3=NCC(CC(=O)N4CC[S+]([O-])CC4)S3)[nH]c12` (centres unmarked) [Example 82, 7-Ethyl-5-{[6-(methylsulfonyl)pyridin-3-yl]oxy}-2-{5-[2-(1-oxidothiomorpholin-4-yl)-2-oxoethyl]-4,5-dihydro-1,3-thiazol-2-yl}-1H-indole] are 194 to 196 °C and 18 nM.
